Assay results as given in patent US20230322761A1, “DEGRADATION OF BRUTON'S TYROSINE KINASE (BTK) BY CONJUGATION OF BTK INHIBITORS WITH E3 LIGASE LIGAND AND METHODS OF USE” (BEIGENE, LTD., priority 2020, published 2023).

Molecular target: T1, BTK (Homo sapiens, UniProt Q06187)
T1 construct: endogenous in cells; host or cells: TMD-8 cells
Assay: BTK degradation in TMD-8 cells, HTRF assay after 6 h treatment
Format: cell-based
Conditions: for DC50: IC50 (DC50) of BTK degradation; for Dmax: TMD8, maximum percentage of inhibition (degradation)
Procedure: TMD-8 cells are treated with compounds diluted in 0.2% DMSO, dilution is done according to the following protocol: (1) make 500× stock solution in DMSO from 1 mM by 6-fold dilution, total 8 doses were included; (2) make 2× solution in cell culture medium by transferring 0.5 μl 500× stock solution into 125 μl medium; (3) 15 μl of 2× solution is added to cells and incubate for 6 h.
After 6 h treatment, add 10 μl 4×lysis buffer to each well; seal the plate and incubate 30 min at room temperature on a plate shaker; Once the cells are lysed, 16 μL of cell lysate are transferred to a PE 384-well HTRF detection plate; 4 μL of pre-mixed HTRF antibodies are added to each well; Cover the plate with a plate sealer, spin 1000 rpm for 1 min, Incubate overnight at room temperature; Read on BMG PheraStar with HTRF protocol (337 nm-665 nm-620 nm).
The IC50 (DC50) value of a compound can be obtained by fitting the following equation
Y=Bottom+(TOP−Bottom)/(1+((IC50/X)^hillslope))
Wherein, X and Y are known values, and IC50, Hillslope, Top and Bottom are the parameters obtained by fitting with software. Y is the inhibition percentage (calculated from the equation), X is the concentration of the compound; IC50 is the concentration of the compound when the 50% inhibition is reached. The smaller the IC50 value is, the stronger the inhibitory ability of the compound is. Vice versa, the higher the IC50 value is, the weaker the ability the inhibitory ability of the compound is; Hillslope represents the slope of the fitted curve, generally around 1*; Bottom represents the minimum value of the curve obtained by data fitting, which is generally 0%±20%; Top represents the maximum value of the curve obtained by data fitting, which is generally 100%±20%. The experimental data were fitted by calculating and analyzing with Dotmatics data analysis software.

T1 sequence (Q06187 whole entry): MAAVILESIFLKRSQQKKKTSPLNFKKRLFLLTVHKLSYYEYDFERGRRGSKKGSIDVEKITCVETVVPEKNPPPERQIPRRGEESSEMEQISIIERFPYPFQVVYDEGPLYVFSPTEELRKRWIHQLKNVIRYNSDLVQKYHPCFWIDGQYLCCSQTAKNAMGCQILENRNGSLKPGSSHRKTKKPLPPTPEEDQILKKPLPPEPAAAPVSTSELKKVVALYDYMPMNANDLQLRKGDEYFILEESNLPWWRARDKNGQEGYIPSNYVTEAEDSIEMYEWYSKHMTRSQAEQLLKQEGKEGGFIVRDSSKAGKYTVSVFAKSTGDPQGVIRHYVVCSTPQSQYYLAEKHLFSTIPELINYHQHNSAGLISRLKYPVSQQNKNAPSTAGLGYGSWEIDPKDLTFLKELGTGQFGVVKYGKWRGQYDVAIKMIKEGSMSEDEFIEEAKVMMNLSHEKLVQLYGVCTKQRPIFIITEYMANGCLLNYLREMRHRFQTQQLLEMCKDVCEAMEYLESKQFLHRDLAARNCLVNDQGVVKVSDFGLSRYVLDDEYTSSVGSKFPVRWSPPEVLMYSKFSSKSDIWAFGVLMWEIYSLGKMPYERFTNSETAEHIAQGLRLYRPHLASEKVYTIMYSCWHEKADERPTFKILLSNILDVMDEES

SMILES	DC50	Dmax
CC(C)(C)c1noc(C(=O)NCc2ccc(-c3n[nH]c4ncc(-c5ccc(C6CCN(CC7CCN(c8ccc(N9CCC(=O)NC9=O)cc8)CC7)CC6)cc5)cc34)cc2F)n1 [Example 10, 3-(tert-butyl)-N-(4-(5-(4-(1-((1-(4-(2,4-dioxotetrahydropyrimidin-1(2H)-yl)phenyl)piperidin-4-yl)methyl)piperidin-4-yl)phenyl)-1H-pyrazolo[3,4-b]pyridin-3-yl)-2-fluorobenzyl)-1,2,4-oxadiazole-5-carboxamide]	10.8 nM	97.1%
CC(C)(C)c1noc(C(=O)NCc2ccc(-c3n[nH]c4ncc(-c5ccc(N6CCN(CC7CCN(c8ccc(N9CCC(=O)NC9=O)cc8)CC7)CC6)cc5)cc34)cc2F)n1 [Example 11, 3-(tert-butyl)-N-(4-(5-(4-(4-((1-(4-(2,4-dioxotetrahydropyrimidin-1(2H)-yl)phenyl)piperidin-4-yl)methyl)piperazin-1-yl)phenyl)-1H-pyrazolo[3,4-b]pyridin-3-yl)-2-fluorobenzyl)-1,2,4-oxadiazole-5-carboxamide]	5.98 nM	94.1%
CC(C)(C)c1noc(C(=O)NCc2ccc(-c3n[nH]c4ncc(-c5ccc(C6CCN(CCC7CCN(c8ccc(N9CCC(=O)NC9=O)cc8)CC7)CC6)cc5)cc34)cc2F)n1 [Example 12, 3-(tert-butyl)-N-(4-(5-(4-(1-(2-(1-(4-(2,4-dioxotetrahydropyrimidin-1(2H)-yl)phenyl)piperidin-4-yl)ethyl)piperidin-4-yl)phenyl)-1H-pyrazolo[3,4-b]pyridin-3-yl)-2-fluorobenzyl)-1,2,4-oxadiazole-5-carboxamide]	5.17 nM	95.7%
CC(C)(C)c1noc(C(=O)NCc2ccc(-c3n[nH]c4ncc(-c5ccc(C6CCN(CCc7ccc(N8CCC(=O)NC8=O)cc7)CC6)cc5)cc34)cc2F)n1 [Example 13, 3-(tert-butyl)-N-(4-(5-(4-(1-(4-(2,4-dioxotetrahydropyrimidin-1(2H)-yl)phenethyl)piperidin-4-yl)phenyl)-1H-pyrazolo[3,4-b]pyridin-3-yl)-2-fluorobenzyl)-1,2,4-oxadiazole-5-carboxamide]	25.7 nM	93%
CC(C)(C)c1nc(C(=O)NCc2ccc(-c3n[nH]c4ncc(-c5ccc(C6CCN(CC7CCN(c8ccc(N9CCC(=O)NC9=O)cc8)CC7)CC6)cc5)cc34)cc2F)no1 [Example 15, 5-(tert-butyl)-N-(4-(5-(4-(1-((1-(4-(2,4-dioxotetrahydropyrimidin-1(2H)-yl)phenyl)piperidin-4-yl)methyl)piperidin-4-yl)phenyl)-1H-pyrazolo[3,4-b]pyridin-3-yl)-2-fluorobenzyl)-1,2,4-oxadiazole-3-carboxamide]	6.38 nM	94.9%
CC(C)(C)c1noc(C(=O)NCc2ccc(-c3n[nH]c4ncc(-c5ccc(C6CCN(CCC7CCN(c8ccc(N9CCC(=O)NC9=O)c(F)c8)CC7)CC6)cc5)cc34)cc2F)n1 [Example 16, 3-(tert-butyl)-N-(4-(5-(4-(1-(2-(1-(4-(2,4-dioxotetrahydropyrimidin-1(2H)-yl)-3-fluorophenyl)piperidin-4-yl)ethyl)piperidin-4-yl)phenyl)-1H-pyrazolo[3,4-b]pyridin-3-yl)-2-fluorobenzyl)-1,2,4-oxadiazole-5-carboxamide]	9.04 nM	96.4%
CC(C)(C)c1noc(C(=O)NCc2ccc(-c3n[nH]c4ncc(-c5ccc(N6CCN(CCC7CCN(c8ccc(N9CCC(=O)NC9=O)c(F)c8)CC7)CC6)cc5)cc34)cc2F)n1 [Example 17, 3-(tert-butyl)-N-(4-(5-(4-(4-(2-(1-(4-(2,4-dioxotetrahydropyrimidin-1(2H)-yl)-3-fluorophenyl)piperidin-4-yl)ethyl)piperazin-1-yl)phenyl)-1H-pyrazolo[3,4-b]pyridin-3-yl)-2-fluorobenzyl)-1,2,4-oxadiazole-5-carboxamide]	5.9 nM	96.4%
COc1ccc(C(=O)N2CCC(c3ccc(-c4cnc5[nH]nc(-c6ccc(CNC(=O)c7nc(C(C)(C)C)no7)c(F)c6)c5c4)cc3)CC2)cc1N1CCC(=O)NC1=O [Example 18, 3-(tert-butyl)-N-(4-(5-(4-(1-(3-(2,4-dioxotetrahydropyrimidin-1(2H)-yl)-4-methoxybenzoyl)piperidin-4-yl)phenyl)-1H-pyrazolo[3,4-b]pyridin-3-yl)-2-fluorobenzyl)-1,2,4-oxadiazole-5-carboxamide]	> 2000 nM	3.39%

Compounds with a lower DC50, results first:

DC50	Dmax	SMILES
4.74 nM	95.2%	CC(C)(C)c1noc(C(=O)NCc2ccc(-c3n[nH]c4ncc(-c5ccc(C6CCN(CCc7ccc(C8CCC(=O)NC8=O)cc7)CC6)cc5)cc34)cc2F)n1 (stereo not shown) [Example 14, 3-(tert-butyl)-N-(4-(5-(4-(1-(4-(2,6-dioxopiperidin-3-yl)phenethyl)piperidin-4-yl)phenyl)-1H-pyrazolo[3,4-b]pyridin-3-yl)-2-fluorobenzyl)-1,2,4-oxadiazole-5-carboxamide]
2.94 nM	97%	Cc1cc(-c2n[nH]c3ncc(-c4ccc(C5CCN(CCc6ccc(N7CCC(=O)NC7=O)cc6)CC5)cc4)cc23)ccc1CNC(=O)c1noc(C(C)(C)C)n1 [Example 6, 5-(tert-butyl)-N-(4-(5-(4-(1-(4-(2,4-dioxotetrahydropyrimidin-1(2H)-yl)phenethyl)piperidin-4-yl)phenyl)-1H-pyrazolo[3,4-b]pyridin-3-yl)-2-methylbenzyl)-1,2,4-oxadiazole-3-carboxamide]
1.9 nM	100%	Cc1cc(-c2n[nH]c3ncc(-c4ccc(C5CCN(CCc6ccc(C7CCC(=O)NC7=O)cc6)CC5)cc4)cc23)ccc1CNC(=O)c1nc(C(C)(C)C)no1 (stereo not shown) [Example 9, 3-(tert-butyl)-N-(4-(5-(4-(1-(4-(2,6-dioxopiperidin-3-yl)phenethyl)piperidin-4-yl)phenyl)-1H-pyrazolo[3,4-b]pyridin-3-yl)-2-methylbenzyl)-1,2,4-oxadiazole-5-carboxamide]
1.55 nM	97%	Cc1cc(-c2n[nH]c3ncc(-c4ccc(C5CCN(CCC6CCN(c7ccc(N8CCC(=O)NC8=O)cc7)CC6)CC5)cc4)cc23)ccc1CNC(=O)c1nc(C(C)(C)C)no1 [Example 5, 3-(tert-butyl)-N-(4-(5-(4-(1-(2-(1-(4-(2,4-dioxotetrahydropyrimidin-1(2H)-yl)phenyl)piperidin-4-yl)ethyl)piperidin-4-yl)phenyl)-1H-pyrazolo[3,4-b]pyridin-3-yl)-2-methylbenzyl)-1,2,4-oxadiazole-5-carboxamide]
1.4 nM	101%	Cc1cc(-c2n[nH]c3ncc(-c4ccc(CCN5CCC(c6ccc(C7CCC(=O)NC7=O)cc6)CC5)cc4)cc23)ccc1CNC(=O)c1noc(C(C)(C)C)n1 (stereo not shown) [Example 8, 3-(tert-butyl)-N-(4-(5-(4-(2-(4-(4-(2,6-dioxopiperidin-3-yl)phenyl)piperidin-1-yl)ethyl)phenyl)-1H-pyrazolol[3,4-b]pyridin-3-yl)-2-methylbenzyl)-1,2,4-oxadiazole-5-carboxamide]
1.19 nM	96.7%	Cc1cc(-c2n[nH]c3ncc(-c4ccc(C5CCN(CC6CCN(c7ccc(N8CCC(=O)NC8=O)cc7)CC6)CC5)cc4)cc23)ccc1CNC(=O)c1nc(C(C)(C)C)no1 [Example 4, 3-(tert-butyl)-N-(4-(5-(4-(1-((1-(4-(2,4-dioxotetrahydropyrimidin-1(2H)-yl)phenyl)piperidin-4-yl)methyl)piperidin-4-yl)phenyl)-1H-pyrazolo[3,4-b]pyridin-3-yl)-2-methylbenzyl)-1,2,4-oxadiazole-5-carboxamide]
0.978 nM	96.7%	Cc1cc(-c2n[nH]c3ncc(-c4ccc(C5CCN(CC6CCN(c7ccc(N8CCC(=O)NC8=O)cc7)CC6)CC5)cc4)cc23)ccc1CNC(=O)c1noc(C(C)(C)C)n1 [Example 1, 5-(tert-butyl)-N-(4-(5-(4-(1-((1-(4-(2,4-dioxotetrahydropyrimidin-1(2H)-yl)phenyl)piperidin-4-yl)methyl)piperidin-4-yl)phenyl)-1H-pyrazolo[3,4-b]pyridin-3-yl)-2-methylbenzyl)-1,2,4-oxadiazole-3-carboxamide]
0.953 nM	96.2%	Cc1cc(-c2n[nH]c3ncc(-c4ccc(C5CCN(CCCOc6ccc(NC7CCC(=O)NC7=O)cc6)CC5)cc4)cc23)ccc1CNC(=O)c1noc(C(C)(C)C)n1 (stereo not shown) [Example 2, 5-(tert-butyl)-N-(4-(5-(4-(1-(3-(4-((2,6-dioxopiperidin-3-yl)amino)phenoxy)propyl)piperidin-4-yl)phenyl)-1H-pyrazolo[3,4-b]pyridin-3-yl)-2-methylbenzyl)-1,2,4-oxadiazole-3-carboxamide]
0.714 nM	97.1%	Cc1cc(-c2n[nH]c3ncc(-c4ccc(C5CCN(CCc6ccc(C7CCC(=O)NC7=O)cc6)CC5)cc4)cc23)ccc1CNC(=O)c1noc(C(C)(C)C)n1 (stereo not shown) [Example 3, 5-(tert-butyl)-N-(4-(5-(4-(1-(4-(2,6-dioxopiperidin-3-yl)phenethyl)piperidin-4-yl)phenyl)-1H-pyrazolo[3,4-b]pyridin-3-yl)-2-methylbenzyl)-1,2,4-oxadiazole-3-carboxamide]
